# Measurements reported in patent US20240226005A1, “NANO- AND MICRO-FORMULATIONS” (Huxley Health Inc., priority 2023, published 2024).
# Entries after “also recorded” stand apart in the source; their conditions may differ.
# Experiments:
# [1] = test system: L2, SW982, HCT116, 231 cells; experiment: Cytotoxicity assay (MTT) on four cell lines; format: cell-based, rat, human; details: 48 h, 10- to 10000-fold dilutions of 1 mg/g
# Method: Four different cell lines were used for the evaluation of the tested formulations and unformulated bufotenin. • L2:Rat lung cells (Normal) https://www.atcc.org/products/ccl-149 • SW982: The human synovial sarcoma cells https://www.atcc.org/products/htb-93 • HCT116: The human colon cancer cells https://www.atcc.org/products/ccl-247 • 231: The human breast cancer cells https://www.atcc.org/products/crm-htb-26
# Cytotoxicity assay: The effect of the NEs on cell viability was measured by MTT assay following the method by Mosmann and colleagues. Briefly, the cells were seeded in a 96 well micro titer plate (100 μL per well) with replications. After 24 h, cells were treated with 50 μL of the analyte at four different dilutions (10,100,1000, and 10000-fold), added directly to wells with culture media. The starting concentration for Kolliphor-Bf-SNEDDS, Kolliphor-Bfa-t-SNEDDSand unformulated bufoteninin DMSO were 1 mg·g^−1. After incubation for 48 h, the media was discarded. 100 μL of 0.5 mg·mL^−1 MTT stock solution was added to each well and incubated for 4 h at 37° C. The obtained formazan crystals were solubilized with DMSO, and the absorbance was measured at 570 nm using a microplate reader (SpectraMax M5e, Molecular Devices, USA). Cell viability (%) was calculated as a ratio of absorbance (A570) in treated cells to absorbance in control cells (intact cells without treatment) (A570).
# [2] = test system: human glioma U251 GBM cells; experiment: Cellular uptake, flow cytometry and fluorescence microscopy; format: cell-based; details: flow cytometry and fluorescence imaging
# Method: Cellular uptake studies: The human glioma U251 GBM cells were cultured at 5×10^4 cells per well in 12 plates using EMEM media supplemented with 10% FBS, 0.5% PenStrep and 1% w/non-essential amino acids (NEAA); then, washed with 0.05% trypsin. The cells were cells were incubated overnight at 37° C. in a humidified 5% CO2 atmosphere. The cells were treated with NEs loaded with bufotenine and Nile Red dye diluted to 0.1 mg/ml in PBS. Untreated cells were used as a negative control a long with a solution of unformulated API and Nile Red. This was done to serve as a sort of a positive control against the negative control of the untreated cells. After 24 h exposure, cells were washed twice with PBS and then collected in PBS-EDTA media (2 mM). The flow cytometry was performed using a BD C6 Flow Cytometry apparatus at a wavelength of 488 nm laser. For each experiment 10,000 cells were gated per sample and each sample was performed in triplicate. These cells prepared as such were used for fluorescence analysis. Fluorescence images were taken using a Leica CRT 6500 at the desired magnification using Texas Red Set (Leica TX2 ET Set) filter and exciting the samples using a continuous wave Ar+ laser at 488 nm.
compound,measurement,setting,value
"CN(C)CCc1c[nH]c2ccc(O)cc12 [unformulated bufotenin, 5-Hydroxy-N,N-dimethyltryptamine]",cytotoxicity / cell viability,[1],no effect on their viability
same,cellular uptake (in words),[2],no unformulated bufotenin penetrated the glioma cells; also recorded: negligible
